US20090081639A1, “Assay for sensitivity to chemotherapeutic agents” (priority 2007, published 2009)
≈ marks a conversion by molar mass, not a printed value.

What was measured:
Type in all cases: cell-based, human
[1] = test system: THP-1 Acute myeloid leukemia cells; test: Chemotherapeutic Sensitivity Assay (Gus and/or LacZ output), batch infection with GLV-1h68, Example 3; settings: for MIC VV / LacZ/infection inhibition: THP-1, GLV-1h68 MOI 10, 24 hours, visual; for MIC VV: β-glucuronidase (Gus) output; for LacZ/infection inhibition: β-galactosidase output
THP-1 cells [2] = test: MTT cell viability assay, Example 3; settings: for MIC MTT / concentration at which cell death / inhibition was observed in the MTT assay: THP-1, approximately 48 hours; for MIC MTT: visual; for concentration at which cell death / inhibition was observed in the MTT assay: text of Example 3
HL-60 cells [3] = test system: HL-60 cells
THP-1 cells [4] = test system: THP-1 cells
KG1a cells [5] = test system: KG1a cells
HL-60 cells [6] = test: Cell viability and growth assay (MTT reduction), Example 2; settings: HL-60, approximately 48 hours, visual assessment
THP-1 cells [7] = test: as above; settings: THP-1, approximately 48 hours, visual assessment
KG1a cells [8] = test: as above; settings: approximately 48 hours, visual assessment
[9] = THP-1, maximal concentration used
[10] = THP-1, next lowest concentration
[11] = THP-1, GLV-1h68, 24 hours, text of Example 3

Row | SMILES | MIC VV [1] [µM] | MIC MTT (THP-1 cells [2]) [µM] | concentration at which inhibition of β-glucuronidase expression was observed [1, 11] | concentration at which cell death / inhibition was observed in the MTT assay (THP-1 cells [2]) | LacZ/infection inhibition [1] [µM] | also measured
1 | O=c1[nH]cc(F)c(=O)[nH]1 [5-Fluorouracil, 5-fluorouracil] | 1.9 (≈ 0.247 µg/mL) | 1.9 (≈ 0.247 µg/mL) | – | – | – | concentration giving very pale blue/pink color in the β-glucuronidase assay, indicating partial cell killing ([1]; THP-1, highest drug concentration tested): 1.9 µM; MTT assay observation (THP-1 cells [2]; [9]): cell death; MTT assay observation (THP-1 cells [2]; [10]): only slight cell death
2 | N.N.[Cl][Pt][Cl] [Cisplatin, cisplatin] | – | 33 | – | – | – | MIC MTT, qualifier in words (THP-1 cells [2]; THP-1, line below the MIC MTT value): partial; MTT assay observation (THP-1 cells [2]; [9]): cell death; MTT assay observation (THP-1 cells [2]; [10]): only slight cell death
3 | O=P1(N(CCCl)CCCl)NCCCO1 (stereo not drawn) [Cyclophosphamide, cyclophosphamide] | >100 | >100 | above 100 μM | above 100 μM | – | concentration at which β-galactosidase expression was inhibited ([1]; THP-1, Example 3): above 100 μM
4 | COc1cc([C@@H]2c3cc4c(cc3[C@@H](O[C@@H]3O[C@@H]5CO[C@@H](C)O[C@H]5[C@H](O)[C@H]3O)[C@H]3COC(=O)[C@H]23)OCO4)cc(OC)c1O [Etopocide, etoposide] | 5 (≈ 2.94 µg/mL) | 5 (≈ 2.94 µg/mL) | – | – | >50 | –
5 | Nc1ccn([C@@H]2O[C@H](CO)[C@@H](O)[C@@H]2O)c(=O)n1 [Ara-C, cytosine arabinoside] | 1 (≈ 0.243 µg/mL) | 1 (≈ 0.243 µg/mL) | ≥ 1 µM | ≥ 1 µM | >1000 | β-galactosidase expression (P7.5k early/late promoter) in presence of Ara-C (HL-60 cells [3]; HL-60, GLV-1h68 MOI 10, 1 nM-1 mM Ara-C, 24 hours, X-gal, visual assessment): equally robust in the presence or absence of Ara-C; effect on β-glucuronidase expression (P11k late promoter) (HL-60 cells [3]; HL-60, GLV-1h68 MOI 10, 1 nM-1 mM Ara-C, 24 hours, X-gluc, visual assessment): dose-dependent inhibition; concentration at which β-glucuronidase expression was undetectable by eye (complete abrogation of viral late transcription) (HL-60 cells [3]; HL-60, GLV-1h68 MOI 10, 24 hours, printed as 1 mM to 1 μM): ≥ 1 µM; β-galactosidase expression (P7.5k early/late promoter) in presence of Ara-C (THP-1 cells [4]; THP-1, GLV-1h68 MOI 10, 1 nM-1 mM Ara-C, 24 hours, X-gal, visual assessment): equally robust in the presence or absence of Ara-C; effect on β-glucuronidase expression (P11k late promoter) (THP-1 cells [4]; THP-1, GLV-1h68 MOI 10, 1 nM-1 mM Ara-C, 24 hours, X-gluc, visual assessment): dose-dependent inhibition; concentration at which β-glucuronidase expression was undetectable by eye (complete abrogation of viral late transcription) (THP-1 cells [4]; THP-1, GLV-1h68 MOI 10, 24 hours, printed as 1 mM to 1 μM): ≥ 1 µM; β-galactosidase expression (P7.5k early/late promoter) in presence of Ara-C (KG1a cells [5]; GLV-1h68 MOI 10, 1 nM-1 mM Ara-C, 24 hours, X-gal, visual assessment): equally robust in the presence or absence of Ara-C; effect on β-glucuronidase expression (P11k late promoter) (KG1a cells [5]; GLV-1h68 MOI 10, 1 nM-1 mM Ara-C, 24 hours, X-gluc, visual assessment): dose-dependent inhibition; concentration at which late viral transcription, as measured by β-glucuronidase expression, was abrogated (KG1a cells [5]; GLV-1h68 MOI 10, 24 hours, 'as low as'): ≥ 100 nM; concentration at which reduction of MTT was abrogated (HL-60 cells [6]): ≥ 1 µM; concentration at which reduction of MTT was abrogated (THP-1 cells [7]): ≥ 1 µM; concentration at which reduction of MTT was abrogated (KG1a cells [8]): ≥ 100 nM; β-galactosidase expression ([1]; THP-1, all concentrations less than the maximal concentration of the drug tested): unaffected; concentration at which limited inhibition of β-galactosidase expression was seen ([1]; THP-1, highest concentration of the drug tested): 1 mM
6 | COc1cccc2c1C(=O)c1c(O)c3c(c(O)c1C2=O)C[C@@](O)(C(C)=O)C[C@@H]3O[C@H]1C[C@H](N)[C@H](O)[C@H](C)O1 [Daunorubicin, daunorubicin] | 0.01 (≈ 0.00528 µg/mL) | 0.01 (≈ 0.00528 µg/mL) | – | ≥ 10 µM | >0.1 | concentration at which some inhibition of β-galactosidase expression was seen ([1]; THP-1, Example 3): greater than 100 nM; concentration at which dose-dependent inhibition of β-glucuronidase expression starts [1, 11]: ≥ 10 nM
7 | CC(=O)O[C@@]12CO[C@@H]1C[C@H](O)[C@@]1(C)C(=O)[C@H](O)C3=C(C)[C@@H](OC(=O)[C@H](O)[C@@H](NC(=O)OC(C)(C)C)c4ccccc4)C[C@@](O)([C@@H](OC(=O)c4ccccc4)[C@H]21)C3(C)C [Docetaxel, docetaxel] | 460 (≈ 372 µg/mL) | 46 (≈ 37.2 µg/mL) | 460 µM | 46 µM | >46 | concentration at which β-galactosidase expression was inhibited ([1]; THP-1, Example 3): ≥ 46 µM
